Measurements reported in patent publication US20080103045A1, “Preparation For Eradicating Algae And Microorganisms In Aqueous Environment” (LIFETECH S.R.O., priority 2005, published 2008).

How the values were obtained:
Conditions in all cases: effective concentration of copper cations
Anabaena sp. = system: Anabaena sp.
Raphidocelis subcapitata = system: Raphidocelis subcapitata
Scenedesmus quadricauda = system: Scenedesmus quadricauda
[1] = system: Synechococcus leopoliensis
Chlorella kessleri = system: Chlorella kessleri
Mycrocystis incerta = system: Mycrocystis incerta

SMILES: O=S(=O)([O-])[O-].[Cu+2] [copper sulfate]
- EC50 (mg/l Cu(II)) (Anabaena sp.): 0.50 mg/l Cu(II)
- EC50 (mg/l Cu(II)) (Raphidocelis subcapitata): 1.27 mg/l Cu(II)
- EC50 (mg/l Cu(II)) (Scenedesmus quadricauda): 1.15 mg/l Cu(II)
- EC50 (mg/l Cu(II)) [1]: 1.26 mg/l Cu(II)
- EC50 (mg/l Cu(II)) (Chlorella kessleri): 1.14 mg/l Cu(II)
- EC50 (mg/l Cu(II)) (Mycrocystis incerta): 1.26 mg/l Cu(II)
